The subject of series [1] is A375 cells. Description: Apoptosis assay (Annexin V staining, flow cytometry). The class given is cell-based, human. As to conditions: 24h exposure. In general terms: Flow cytometry measures light scatter and fluorescence of single cells or particles in a stream.
Description: (§1) A375 cells were seeded at 250,000 cells/well in 6-well plates and left to attach overnight. […] For cell cycle analysis, cells were detached with trypsin, fixed in ethanol 70%, treated with RNase A, mixed with propidium iodide, and processed with the Becton Dickinson LSR II flow cytometer. Analysis was performed with ModFit LT software. […] Samples were processed with the Becton Dickinson LSR II flow cytometer, and the analysis was performed with FlowJo software. Annexin V positive and PI negative cells were counted as apoptotic cells.
Series [2] relates to A375 cells. The series can be described thus: Cell cycle analysis (PI staining, flow cytometry). The class given is cell-based, human. Conditions: 24h.
Description: as §1
Series [3] concerns A375 cells. The series can be described thus: Immunofluorescence (α-tubulin, pericentrin, DNA). Format: cell-based, human. As to conditions: 20µM, 24h. How it is done: At the end of the incubation, cells were fixed in 4% PFA, permeabilized in PBS-0.2% Triton X100, and blocked in PBS-2.5% BSA before antibody incubation. Cells were incubated with anti-Tubulin and anti-Pericentrin antibodies overnight at 4°C, and then with secondary antibodies for 1 h at room temperature ( Table 1 ). All antibodies were diluted in PBS-2.5% BSA. The coverslips were then mounted on cover glass with a DAPI (4’,6-diamidino-2-phenylindole)-containing mounting media (Invitrogen P36962, Waltham, MA), and imaged with a Leica SP8 confocal microscope.

The subject of series [4] is variety of cancer cell types. As to conditions: in vitro; read-out: IC50, cytotoxicity; cited from earlier work.
The subject of series [5] is A375 cells. Description: Cell viability assay (Cell-Titer-Blue). Format: cell-based, human.
Description: (§2) Cells were seeded in 96-well plates at a suitable cell density for the growth rates of individual cell lines and the incubation time of the assay. […] Cell viability was determined using Cell-Titer-Blue assay (Promega) according to manufacturer’s instructions. The Synergy HT plate reader (Biotek, Winooski, VT) was used for signal quantification and the fluorescence values were normalized to the vehicle well for each cell line. Absolute IC50 and Growth rate inhibition GR50 ([27]) were calculated with GraphPadPrism software (GraphPad Software, Inc.).
A further series concerns MDA-MB-231. The series can be described thus: Cell viability assay (Cell-Titer-Blue). The class given is cell-based, human. Conditions: 72h; read-out: Calculated IC50.
A further series deals with HCC1806. Description: Cell viability assay (Cell-Titer-Blue). The class given is cell-based, human. As to conditions: 72h; read-out: Calculated IC50.
The test system of a further series is ZR-75-1. Description: Cell viability assay (Cell-Titer-Blue). The class given is cell-based, human. As to conditions: 72h; read-out: Calculated IC50.
Another series concerns PC-3. Description: Cell viability assay (Cell-Titer-Blue). The class given is cell-based, human. As to conditions: 72h; read-out: Calculated IC50.
In another series the test system is LNCaP. Description: Cell viability assay (Cell-Titer-Blue). The class given is cell-based, human. As to conditions: 72h; read-out: Calculated IC50.
The next series relates to DU145. The series can be described thus: Cell viability assay (Cell-Titer-Blue). As to conditions: 72h; read-out: Calculated IC50. Format: cell-based, human.
In another series the test system is 22Rv1. The series can be described thus: Cell viability assay (Cell-Titer-Blue). As to conditions: 72h; read-out: Calculated IC50. Format: cell-based, human.
In a further series the test system is HT29. The series can be described thus: Cell viability assay (Cell-Titer-Blue). Format: cell-based, human. As to conditions: 72h; read-out: Calculated IC50.
Another series relates to HCT116. The series can be described thus: Cell viability assay (Cell-Titer-Blue). Format: cell-based, human. Conditions: 72h; read-out: Calculated IC50.
The next series concerns PANC1. Description: Cell viability assay (Cell-Titer-Blue). The class given is cell-based, human. As to conditions: 72h; read-out: Calculated IC50.
A further series deals with BxPC3. Description: Cell viability assay (Cell-Titer-Blue). The class given is cell-based, human. Conditions: 72h; read-out: Calculated IC50.
The next series concerns A498. Description: Cell viability assay (Cell-Titer-Blue). The class given is cell-based, human. As to conditions: 72h; read-out: Calculated IC50.
The next series has as its system 786-O. Description: Cell viability assay (Cell-Titer-Blue). The class given is cell-based, human. Conditions: 72h; read-out: Calculated IC50.
In the next series the test system is HepG2. Description: Cell viability assay (Cell-Titer-Blue). The class given is cell-based, human. Conditions: 72h; read-out: Calculated IC50.
A further series has as its system TCCSUP. The series can be described thus: Cell viability assay (Cell-Titer-Blue). Format: cell-based, human. Conditions: 72h; read-out: Calculated IC50.
Another series relates to RT4. Description: Cell viability assay (Cell-Titer-Blue). As to conditions: 72h; read-out: Calculated IC50. The class given is cell-based, human.
A further series deals with U87. Description: Cell viability assay (Cell-Titer-Blue). The class given is cell-based, human. Conditions: 72h; read-out: Calculated IC50.
The next series deals with U251. The series can be described thus: Cell viability assay (Cell-Titer-Blue). The class given is cell-based, human. Conditions: 72h; read-out: Calculated IC50.
Another series relates to SKMEL28. The series can be described thus: Cell viability assay (Cell-Titer-Blue). Format: cell-based, human. Conditions: 72h; read-out: Calculated IC50.
For the next series, the system named is RPMI7951. The series can be described thus: Cell viability assay (Cell-Titer-Blue). The class given is cell-based, human. Conditions: 72h; read-out: Calculated IC50.
The test system of a further series is Hs852T. The series can be described thus: Cell viability assay (Cell-Titer-Blue). The class given is cell-based, human. Conditions: 72h; read-out: Calculated IC50.
The next series deals with A101D. Description: Cell viability assay (Cell-Titer-Blue). Conditions: 72h; read-out: Calculated IC50. Format: cell-based, human.
For a further series, the system named is WM-266-4. Description: Cell viability assay (Cell-Titer-Blue). Format: cell-based, human. As to conditions: 72h; read-out: Calculated IC50.
Another series relates to A2058. The series can be described thus: Cell viability assay (Cell-Titer-Blue). The class given is cell-based, human. Conditions: 72h; read-out: Calculated IC50.
Series [6] has as its system panel of cancer cell lines. The series can be described thus: Cell viability assay across the panel of cell lines. The class given is cell-based, human. Conditions: 72h of drug exposure; read-out: Absolute IC50, range across the panel.
Description: (§3) All cell lines were grown at 37°C in a 5% CO2 atmosphere in the ATCC-specified medium containing 10% FBS and 1% NEAA ( Table 1 ).
as §2

The structures appear in SMILES notation. Where a name gives a salt, the structure may show the parent alone. Read-outs that look alike come from different tables or passages of the source. Some results are limits rather than exact numbers.

Description for 22Rv1: as §2
Description for 786-O: as §3, §2
Description for A101D: as §3, §2
Description for A2058: as §3, §2
Description for A498: as §3, §2
Description for BxPC3: as §2
Description for DU145: as §3, §2
Description for HCC1806: as §3, §2
Description for HCT116: as §2
Description for HT29: as §2
Description for HepG2: as §3, §2
Description for Hs852T: as §3, §2
Description for LNCaP: as §3, §2
Description for MDA-MB-231: as §2
Description for PANC1: as §2
Description for PC-3: as §3, §2
Description for RPMI7951: as §2
Description for RT4: as §3, §2
Description for SKMEL28: as §2
Description for TCCSUP: as §3, §2
Description for U251: as §2
Description for U87: as §2
Description for WM-266-4: as §3, §2
Description for ZR-75-1: as §3, §2

On to `OCCN1CCN(CCCN2c3ccccc3Sc3ccc(C(F)(F)F)cc32)CC1` [Fluphenazine, fluphenazine hydrochloride], for which the “concentrations inducing apoptosis (annexin V staining)” value in the series on A375 cells [1] is recorded as not below 20 µM. The “concentrations inducing G0/G1 cell cycle arrest” value in the series with A375 cells [2] is reported as not below 10 µM. Besides, the “mitotic phenotype by immunofluorescence” value in the series with A375 cells [3] is “dramatic decrease in the number of cells in mitosis”. Further, the IC50 – broadly, the concentration that inhibits the measured activity by half – in series [4] is 5 to 20 µM.

In the case of `CN(C)CCCN1c2ccccc2Sc2ccc(Cl)cc21` [Chlorpromazine, chlorpromazine hydrochloride], the IC50 in the series with A375 cells [5] (Homo sapiens, A-375, 24h treatment, read-out: IC50, cell viability) stood at 13.6 µM. The “cells in the G2/M phase” value in the series on A375 cells [2] (20µM) came to 69.8%. Besides, the “cell cycle arrest (in words)” value in the series on A375 cells [2] is “induces a cell cycle arrest in G2/M”. The “mitotic phenotype by immunofluorescence” value with A375 cells [3] is reported as “cells often appeared binucleated”.

Turning to `Cl.NCCCCCCNS(=O)(=O)c1cccc2c(Cl)cccc12` [W-7, W-7 hydrochloride], the IC50 in the series on MDA-MB-231 is 34.6 µM; with HCC1806, 26.9 µM; in the series with ZR-75-1, 25.2 µM; in the series on PC-3 it was 40.8 µM; in the series on LNCaP, 36.6 µM; with DU145, 37.3 µM. The IC50 is 39.1 µM with 22Rv1; 26.4 µM in the series with HT29; 27.9 µM in the series on HCT116; 32.7 µM with PANC1; 38.1 µM with BxPC3; 28 µM with A498. The concentration for half-maximal inhibition (IC50) in the series with 786-O was 33.5 µM; in the series on HepG2, 26.8 µM; in the series on TCCSUP, 25.9 µM; in the series with RT4, 45.2 µM; with U87, 56.8 µM; in the series with U251, 30 µM. The IC50 in the series with A375 cells [5] (72h, read-out: Calculated IC50) is 21.8 µM; with SKMEL28 it was 29.3 µM; with RPMI7951, 26.5 µM; in the series on Hs852T it was 24.5 µM; in the series on A101D, 26.9 µM; with WM-266-4 it was 28.2 µM. Also, the IC50 in the series on A2058 is 24.3 µM; in [6] it was 21.8 to 56.8 µM. Further, the “cell cycle arrest (in words)” value in the series with A375 cells [2] is listed as “did not induce a cell cycle arrest”.

Values taken from PMC10613967, “The anti-cancer efficacy of a novel phenothiazine derivative is independent of dopamine and serotonin receptor inhibition” (Frontiers in Oncology, 2023).
